Measurements reported in patent US9567319B2, “Compound having higher inhibitory activity on protein kinase G and preparation method thereof” (Jenkem Technology Co., Ltd., (Tianjin), priority 2014, dated 2017).
In brackets after ≈: the same amount, converted by molar mass. Several values for one entry are separate records, joined by “and”; a condition that tells them apart may be missing. Identical values can stand only once.

Legend:
[1] = tested on: hyperalgesia induced by Freund's complete adjuvant (CFA) in rats; test: Weight bearing test, CFA induced hyperalgesia in rats; format: in vivo, SD rats; details: for Weight Bearing Test Values (Mean ± SD), Baseline: pretreatment, n=8; for Weight Bearing Test Values (Mean ± SD), 15 min: 15 min post treatment; for Weight Bearing Test Values (Mean ± SD), 2 h: 2 h post treatment
Description: Compounds 46 and JK-02A were prepared according to the disclosure of US patent application No. US2008/0176920, and compound JK-02H was prepared according to Example 1. A repeat efficacy study was carried out on the same batch of animals with a single-dose treatment followed by a washing-out period. The 14 days in life studies included two stages: a single low dose treatment assessment on the 7th day and then a single high dose treatment test on the 14th day after CFA injection. On the 7th day after CFA injection, the rats were randomly assigned to respective groups using a computer generated randomization procedure based on the body weight and the baseline values of Von Frey and weight bearing test. Animals received corresponding single dose treatments (vehicle and 3 test articles) on the 7th and 14th days after CFA injection, respectively, and the effect of the test compounds were evaluated. Hyperalgesia of all the study animals was assessed following a single low dose treatment with the test articles on day 7, while a single high dose effect of the test article was evaluated on day 14. The mechanical hyperalgesia and weight bearing were measured on day 7 and day 14 after CFA injection, followed by administration of control or test articles. Von Frey filaments and weight bearing were measured on all the study animals at three time points on day 7, and four time points on day 14. An extra time point assessment was conducted on day 14, considering the strong analgesic effect of the test articles at a higher dose noticed during the test at the 3th time point. Rats distributed body weight unequally on the CFA-injected and contra lateral paws, which was measured by a weight balance changing instrument (Bio-medical, USA). The animals were tested in a box constructed to register the weight load exerted by the hind paws by means of force plates inserted in the floor. The mean weight bearing (unit in “g”) between the CFA-injected paw and the contra-lateral paw was determined in 10 seconds. The weight bearing test of all study animals was conducted at the same time intervals as the mechanical hyperalgesia test. All the results were expressed as mean±SD. One-way analysis of variance (ANOVA) followed by a multiple comparison test were applied among the groups, p<0.05 accepted as significant.

[2] = Test of water solubility of the compounds
[3] = tested on: hyperalgesia induced by Freund's complete adjuvant (CFA) in rats; test: Von Frey filament test, CFA induced hyperalgesia in rats; format: in vivo, SD rats; details: for Von Frey Filament Test Values (Mean ± SD), Baseline: pretreatment, n=8; for Von Frey Filament Test Values (Mean ± SD), 15 min: 15 min post treatment; for Von Frey Filament Test Values (Mean ± SD), 2 h: 2 h post treatment
Description: Compounds 46 and JK-02A were prepared according to the disclosure of US patent application No. US2008/0176920, and compound JK-02H was prepared according to Example 1. A repeat efficacy study was carried out on the same batch of animals with a single-dose treatment followed by a washing-out period. The 14 days in life studies included two stages: a single low dose treatment assessment on the 7th day and then a single high dose treatment test on the 14th day after CFA injection. On the 7th day after CFA injection, the rats were randomly assigned to respective groups using a computer generated randomization procedure based on the body weight and the baseline values of Von Frey and weight bearing test. Animals received corresponding single dose treatments (vehicle and 3 test articles) on the 7th and 14th days after CFA injection, respectively, and the effect of the test compounds were evaluated. Hyperalgesia of all the study animals was assessed following a single low dose treatment with the test articles on day 7, while a single high dose effect of the test article was evaluated on day 14. The mechanical hyperalgesia and weight bearing were measured on day 7 and day 14 after CFA injection, followed by administration of control or test articles. Von Frey filaments and weight bearing were measured on all the study animals at three time points on day 7, and four time points on day 14. An extra time point assessment was conducted on day 14, considering the strong analgesic effect of the test articles at a higher dose noticed during the test at the 3th time point. Mechanical hyperalgesia of the left hind paw was measured before and during the course of study in all animal groups by determining withdrawal thresholds to Von Frey filament (Bioseb, France). Increasing tensile force perpendicular to the plantar surface of the paw was applied to the filaments. The threshold for paw withdrawal was calculated by taking the average of 2-3 repeated stimuli (unit in “g”). On day 7, Von Frey Filament measurements were conducted three times, at the time points of pretreatment, 15 min and 2 hours post treatment. Following a one-week washing out period, on day 14 after CFA injection, Von Frey Filament tests were performed again four times post a single high dose administration. Rats treated with vehicle or high dose test articles were measured at the time points of pretreatment, 15 min, 2 and 5 hours post treatment. All the results were expressed as mean±SD. One-way analysis of variance (ANOVA) followed by a multiple comparison test were applied among the groups, p<0.05 accepted as significant.

[4] = day 7 after CFA, low dose groups (46 and JK-02A 10 mg/kg, JK-02H 5 mg/kg)
[5] = day 7 after CFA, single low dose i.v. (46 and JK-02A 10 mg/kg, JK-02H 5 mg/kg)
[6] = day 14 after CFA, high dose groups (46 and JK-02A 40 mg/kg, JK-02H 20 mg/kg)
[7] = day 14 after CFA, single high dose i.v. (46 and JK-02A 40 mg/kg, JK-02H 20 mg/kg)
[8] = day 14 after CFA, single high dose i.v. (46 and JK-02A 40 mg/kg, JK-02H 20 mg/kg), 5 h post treatment
[9] = individual animal, high dose i.v. (46 and JK-02A 40 mg/kg, JK-02H 20 mg/kg)
[10] = individual animal, low dose i.v. (46 and JK-02A 10 mg/kg, JK-02H 5 mg/kg)
[11] = individual animal, high dose i.v. (46 and JK-02A 40 mg/kg, JK-02H 20 mg/kg), two repeated stimuli
[12] = individual animal, low dose i.v. (46 and JK-02A 10 mg/kg, JK-02H 5 mg/kg), two repeated stimuli

Volume of added water ([2]; about 0.1 g sample, room temperature, water added until dissolved): 71.5 mL
solubility ([2]; water, thermodynamic from solid): 1400 µg/mL (≈ 2560 µM)
SMILES: CCCOc1ccc(F)c(F)c1C(=O)c1ccc(C(=O)N[C@@H]2CNC[C@H]2NC(=O)c2ccc3cn[nH]c3c2)cc1 [JK-02A]
Weight Bearing Test Values (Mean ± SD), Baseline [1, 4]: 48.18 ± 5.05 g
Weight Bearing Test Values (Mean ± SD), 15 min [1, 5]: 38.11 ± 11.23 g
Weight Bearing Test Values (Mean ± SD), 2 h [1, 5]: 36.24 ± 9.72 g
Weight Bearing Test Values (Mean ± SD), Baseline [1, 6]: 49.54 ± 7.39 g
Weight Bearing Test Values (Mean ± SD), 15 min [1, 7]: 28.43 ± 8.83 g
Weight Bearing Test Values (Mean ± SD), 2 h [1, 7]: 33.36 ± 8.92 g
Weight Bearing Test Values (Mean ± SD), 5 h [1, 8]: 42.69 ± 7.52 g
Weight Bearing Values of Individual Animal, Day 14, 15 min, Left [1, 9]: 58.9 g and 57.8 g and 49.6 g and 53.7 g and 52.7 g and 50.9 g and 67.1 g and 72.2 g
Weight Bearing Values of Individual Animal, Day 14, 15 min, Right [1, 9]: 77.1 g and 95.3 g and 77.6 g and 90.1 g and 80.4 g and 80.1 g and 104.0 g and 85.7 g
Weight Bearing Values of Individual Animal, Day 14, 15 min, Δ [1, 9]: 18.2 g and 37.5 g and 28.0 g and 36.4 g and 27.7 g and 29.2 g and 36.9 g and 13.5 g
Weight Bearing Values of Individual Animal, Day 14, 2 h, Left [1, 9]: 66.8 g and 71.9 g and 48.9 g and 60.7 g and 50.1 g and 54.6 g and 44.8 g and 72.2 g
Weight Bearing Values of Individual Animal, Day 14, 2 h, Right [1, 9]: 97.0 g and 106.5 g and 97.2 g and 81.1 g and 79.8 g and 91.1 g and 86.5 g and 97.7 g
Weight Bearing Values of Individual Animal, Day 14, 2 h, Δ [1, 9]: 30.2 g and 34.6 g and 48.3 g and 20.4 g and 29.7 g and 36.5 g and 41.7 g and 25.5 g
Weight Bearing Values of Individual Animal, Day 14, 5 h, Left [1, 9]: 38.0 g and 62.9 g and 55.0 g and 45.7 g and 52.7 g and 39.7 g and 54.9 g and 68.2 g
Weight Bearing Values of Individual Animal, Day 14, 5 h, Right [1, 9]: 77.2 g and 99.3 g and 93.8 g and 90.7 g and 92.0 g and 99.9 g and 95.3 g and 110.4 g
Weight Bearing Values of Individual Animal, Day 14, 5 h, Δ [1, 9]: 39.2 g and 36.4 g and 38.8 g and 45.0 g and 39.3 g and 60.2 g and 40.4 g and 42.2 g
Weight Bearing Values of Individual Animal, Day 7, 15 min, Left [1, 10]: 36.6 g and 56.4 g and 47.8 g and 37.9 g and 36.9 g and 50.5 g and 25.4 g and 65.6 g
Weight Bearing Values of Individual Animal, Day 7, 15 min, Right [1, 10]: 83.8 g and 79.1 g and 74.1 g and 89.5 g and 62.9 g and 93.7 g and 69.1 g and 109.8 g
Weight Bearing Values of Individual Animal, Day 7, 15 min, Δ [1, 10]: 47.2 g and 22.7 g and 26.3 g and 51.6 g and 26.0 g and 43.2 g and 43.7 g and 44.2 g
Weight Bearing Values of Individual Animal, Day 7, 2 h, Left [1, 10]: 68.5 g and 68.0 g and 31.5 g and 39.9 g and 43.9 g and 37.3 g and 52.3 g and 62.2 g
Weight Bearing Values of Individual Animal, Day 7, 2 h, Right [1, 10]: 99.4 g and 85.5 g and 80.7 g and 75.7 g and 77.3 g and 73.4 g and 95.8 g and 105.7 g
Weight Bearing Values of Individual Animal, Day 7, 2 h, Δ [1, 10]: 30.9 g and 17.5 g and 49.2 g and 35.8 g and 33.4 g and 36.1 g and 43.5 g (2×)
First Baseline, Balance Left, individual animal ([1]; individual animal, pretreatment day 7, left (CFA-injected) hind paw): 54.2 g and 57.2 g and 45.5 g and 64.4 g and 45.6 g and 12.0 g and 58.0 g and 64.0 g
First Baseline, Balance Right, individual animal ([1]; individual animal, pretreatment day 7, right hind paw): 103.7 g and 98.1 g and 93.0 g and 117.4 g and 90.5 g and 66.3 g and 100.6 g and 116.7 g
First Baseline, Balance Δ, individual animal ([1]; individual animal, pretreatment day 7, right minus left): 49.5 g and 40.9 g and 47.5 g and 53.0 g and 44.9 g and 54.3 g and 42.6 g and 52.7 g
Second Baseline, Balance Left, individual animal ([1]; individual animal, pretreatment day 14, left (CFA-injected) hind paw): 32.1 g and 47.3 g and 30.4 g and 45.9 g and 50.1 g and 39.6 g and 33.5 g and 57.1 g
Second Baseline, Balance Right, individual animal ([1]; individual animal, pretreatment day 14, right hind paw): 89.3 g and 90.0 g and 81.0 g and 87.2 g and 92.4 g and 90.4 g and 94.1 g and 97.9 g
Second Baseline, Balance Δ, individual animal ([1]; individual animal, pretreatment day 14, right minus left): 57.2 g and 42.7 g and 50.6 g and 41.3 g and 52.3 g and 50.8 g and 60.6 g and 40.8 g
Von Frey Filament Test Values (Mean ± SD), Baseline [3, 4]: 6.89 ± 0.99 g
Von Frey Filament Test Values (Mean ± SD), 15 min [3, 5]: 7.64 ± 1.83 g
Von Frey Filament Test Values (Mean ± SD), 2 h [3, 5]: 7.43 ± 1.62 g
Von Frey Filament Test Values (Mean ± SD), Baseline [3, 6]: 6.73 ± 0.74 g
Von Frey Filament Test Values (Mean ± SD), 15 min [3, 7]: 8.63 ± 1.62 g
Von Frey Filament Test Values (Mean ± SD), 2 h [3, 7]: 8.82 ± 1.20 g
Von Frey Filament Test Values (Mean ± SD), 5 h [3, 8]: 8.45 ± 2.18 g
Von Frey Values of Individual Animal, Day 14, 15 min [3, 11]: 9.3 g and 8.9 g and 6.5 g and 7.4 g (2×) and 10.9 g and 9.5 g (2×) and 6.1 g and 12.5 g and 10.6 g and 7.6 g and 9.2 g and 8.5 g and 10.7 g and 9.1 g
Von Frey Values of Individual Animal, Day 14, 2 h [3, 11]: 8.7 g (2×) and 9.8 g and 9.5 g and 9.3 g (2×) and 9.4 g and 9.1 g and 8.5 g and 9.2 g and 8.2 g and 8.9 g and 9.6 g and 10.6 g and 6.2 g and 5.8 g
Von Frey Values of Individual Animal, Day 14, 5 h [3, 11]: 11.9 g and 13.2 g and 6.7 g and 5.2 g and 8.3 g and 9.2 g and 9.7 g and 9.8 g and 8.8 g and 9.9 g and 6.4 g and 5.7 g and 7.3 g and 8.9 g and 7.4 g and 6.8 g
Von Frey Values of Individual Animal, Day 7, 15 min [3, 12]: 9.1 g (3×) and 8.8 g and 6.3 g and 5.6 g (2×) and 10.2 g and 8.9 g and 10.0 g and 9.5 g (2×) and 5.7 g and 7.3 g and 6.0 g and 9.4 g
Von Frey Values of Individual Animal, Day 7, 2 h [3, 12]: 6.6 g and 5.6 g and 7.0 g (3×) and 8.3 g and 7.4 g and 6.0 g and 8.9 g and 10.5 g and 10.4 g and 6.5 g and 7.1 g and 7.3 g and 5.1 g and 4.9 g
First Baseline, Von Frey, individual animal ([3]; individual animal, pretreatment day 7, two repeated stimuli per animal): 5.1 g and 5.9 g and 5.8 g and 6.5 g and 6.9 g and 6.2 g and 5.2 g and 6.8 g (2×) and 7.8 g and 7.3 g and 7.6 g (2×) and 7.9 g and 8.2 g and 8.6 g
Second Baseline, Von Frey, individual animal ([3]; individual animal, pretreatment day 14 after washing-out, two repeated stimuli per animal): 7.1 g (2×) and 5.3 g and 5.2 g and 7.4 g and 7.3 g and 6.0 g and 7.6 g and 6.4 g (2×) and 6.6 g and 7.7 g and 7.5 g (2×) and 5.8 g and 6.7 g
